Experimental data reported in US20030215899A1, “Reversible oxidation of protein tyrosine phosphatases” (CEPTYR, Inc., priority 2002, published 2003).
“Also recorded” adds a separate entry of the source.

Legend:
[1] = tested on: PTPs in Rat-1 cells; experiment: modified in-gel PTP activity assay of Rat-1 cell lysates; type: cell-based; conditions: for inactivation (oxidation) of PTPs in cells: 200 μM
Text: (§1) To determine whether ROS stimulated intracellular tyrosine phosphorylation through the oxidation and inhibition of cellular PTPs, a modified in-gel PTP activity assay was devised, as follows: As substrate, poly (4:1) Glu-Tyr (Sigma) was labeled with [γ-^32P]-ATP using the GST-FER fusion PTK, as described previously (Shen et al., 1998 J. Biol. Chem. 273:6474-81). The labeled substrates were used within three weeks to limit the variation of its specific activity from experiment to experiment. The lysis buffer (25 mM CH3COONa, 1% NP-40, 150 mM NaCl, 10% glycerol, pH 5.5) was degassed at 4° C. for overnight, before catalase and superoxide dismutase (both 100 μg/ml), protease inhibitors and 10 mM iodoacetic acid (IAA) were added. Following stimulation, cells were lysed under anaerobic conditions in an argon chamber. Lysates (25 μg) were processed as described herein and an “in-gel” phosphatase assay (Burridge and Nelson, 1995) was conducted using SDS-PAGE gels containing a radioactively-labeled substrate (1.5×10^6 cpm/20 ml gel solution, approximately 2 μM p-Tyr).
(§2) Cells were triggered with the appropriate stimulus and harvested under anaerobic conditions in lysis buffer containing IAA. Those PTPs that had not encountered ROS in the cell became irreversibly inactivated by alkylation of their active site Cys with IAA. However, in contrast, any PTPs in which the active site Cys had been oxidized in response to the stimulus were resistant to alkylation. For the “in-gel” phosphatase assay, a 10% SDS-PAGE gel was cast containing a radioactively-labeled substrate. An aliquot of cell lysate was subjected to SDS-PAGE and proteins in the gel were sequentially denatured, then renatured in the presence of reducing reagents. […] The reaction was then terminated by fixing, staining and destaining the gel. Finally the gel was dried and exposed to film. The presence of a PTP was visualized by substrate dephosphorylation, as the appearance of a clear, white area on the black background of labeled substrate.

[2] = tested on: tyrosine phosphorylation of cellular proteins in Rat-1 cells; experiment: immunoprecipitation (PT-66) and anti-pTyr (G104) immunoblot of tyrosine phosphorylated proteins; type: cell-based
Procedure: (§3) For immunoprecipitation, cells were rinsed with ice-cold PBS, then lysed in ice-cold 20 mM Hepes (pH 7.5), 1% NP-40, 150 mM NaCl, 10% glycerol, 200 μM […] and protease inhibitors (25 μg/ml of aprotinin and leupeptin). […] The anti-pTyr antibody G104 was described previously (Garton et al., 1997 Oncogene 15, 877-885). Anti-PDGFRββ antibody (Ab-X) was a gift from Dr. Daniel DiMaio at Yale University (Irusta and DiMaio, 1998 EMBO J. 17, 6912-6923). Anti-human G-CSF receptor (G-CSFR) antibody was provided by Dr. Toshio Hirano at Osaka University, Japan (Fukada et al., 1996 Immunity 5, 449-460). Lysate (400 μg) was incubated with 5 μg of antibody conjugated to protein A/G-Sepharose (Amersham Pharmacia, Arlington Heights, Ill.) for 2 hours at 4° C. For immunoblotting, aliquots of total lysates (30 μg per sample) or immunoprecipitates were subjected to SDS-PAGE and transferred to nitrocellulose filters, which were incubated with appropriate primary and secondary antibodies and the specific signals were visualized by the ECL detection system (Amersham Pharmacia).

[3] = target: SHP-2 (E76A mutant) (Homo sapiens, UniProt Q06124, E76A); type: biochemical; conditions: for protection of SHP-2 from alkylation by IAA: 37° C. 5 mins, then 4 mM IAA
[4] = tested on: intracellular ROS in Rat-1 cells; experiment: ROS-induced DCF fluorescence (microscopy, flow cytometry); type: cell-based; conditions: for DCF fluorescence by fluorescence microscopy: 20 μM H2DCFDA preload, 200 μM, 5 mins; for shift of DCF fluorescence by flow cytometry, H2O2 versus t-BHP: 200 μM each
Procedure: The effects of H2O2 and t-BHP on inactivation of PTPs and activation of MAPK signaling pathways were next compared in a cellular context. Intracellular ROS were measured using 2′,7′-dichlorofluorescein diacetate (H2DCFDA) and 5-(and-6)-chloromethyl-2′,7′-dichlorodihydrofluorescein diacetate (CM-H2DCFDA) (all fluorescent ROS indicators from Molecular Probes, Eugene, Oreg.) either by fluorescence microscopy, using a Zeiss Axiovert 405M inverted microscope equipped with a fluorescence attachment and digital camera, or by cell sorting, using a FACSCalibur System ([…].), according to the manufacturer's recommendations. Rat-1 cells were pre-loaded with 20 μM H2DCFDA in the dark for 20 mins, then exposed to H2O2 and t-BHP (both 200 μM) for 5 mins. Images of ROS-induced DCF fluorescence are shown at magnification 400× (FIG. 3B upper panel). Cells (1×10^5) that underwent the same treatment as above were harvested and resuspended in Hanks' solution, then immediately subjected to flow cytometric analysis to measure ROS-induced DCF fluorescence. The basal peak indicates background fluorescence, whereas the rightward shifted peak indicates ROS-induced DCF fluorescence (FIG. 3B, lower panels). […] Cells were exposed to H2O2 and t-BHP (each at 200 μM) for the indicated times, lysed in the presence of 10 mM IAA and oxidized PTPs were visualized in the in-gel PTP activity assay.
Rat-1 cells were incubated with 20 μM CM-H2DCFDA in the dark for 20 mins, then exposed to peptide growth factors (50 ng/ml) for an additional 10 mins. Images of ROS-induced DCF fluorescence are shown at 50× magnification. (FIG. 6A) The data are representative of 4 independent experiments. In FIG. 6B, Rat-1 cells were exposed to peptide growth factors for the indicated times, lysed in the presence of 10 mM IAA, and oxidized PTPs were visualized by the in-gel PTP assay. […] Aliquots of cell lysate from each treatment group were immunoblotted with anti-phospho-MAPK Ab and re-probed with anti-MAPK Ab.

[5] = tested on: MAPK; experiment: anti-phospho-MAPK / anti-MAPK immunoblot; type: cell-based, Rat; conditions: for activation of MAPKs (mitogenic signaling): 200 μM
Procedure: as §3

[6] = target: T1, 70 kDa PTP (SHP-2) (Rattus norvegicus, UniProt P41499); experiment: modified in-gel PTP assay, growth factor stimulated Rat-1 cells; type: cell-based
T1 construct: endogenous in cells; host or cells: Rat-1 fibroblasts
T1 sequence (P41499 1-593): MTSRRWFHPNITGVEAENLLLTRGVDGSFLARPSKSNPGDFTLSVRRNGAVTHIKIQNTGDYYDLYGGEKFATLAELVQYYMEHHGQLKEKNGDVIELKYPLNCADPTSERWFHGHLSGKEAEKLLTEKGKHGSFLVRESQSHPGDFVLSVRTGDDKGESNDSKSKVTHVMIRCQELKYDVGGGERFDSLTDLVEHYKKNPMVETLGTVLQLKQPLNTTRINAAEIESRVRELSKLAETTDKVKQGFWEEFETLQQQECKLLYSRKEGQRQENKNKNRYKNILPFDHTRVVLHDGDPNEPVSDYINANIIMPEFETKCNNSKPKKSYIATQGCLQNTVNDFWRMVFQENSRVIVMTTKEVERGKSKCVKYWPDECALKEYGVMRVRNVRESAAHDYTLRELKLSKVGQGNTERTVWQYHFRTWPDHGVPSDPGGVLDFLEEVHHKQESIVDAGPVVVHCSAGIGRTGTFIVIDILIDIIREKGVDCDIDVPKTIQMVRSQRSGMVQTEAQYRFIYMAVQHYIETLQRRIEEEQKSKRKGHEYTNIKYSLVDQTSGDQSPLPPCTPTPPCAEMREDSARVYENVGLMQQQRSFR
Text: as §1, §2
As described above, treatment of Rat-1 cells with H2O2 led to inactivation of multiple PTPs (FIGS. 2-3). […] Lysates of PDGF-stimulated Rat-1 cells were then analyzed using the modified in-gel PTP activity assay described above. […] Serum-starved Rat-1 cells were exposed to 50 ng/ml PDGF-BB for the times indicated (FIG. 4A). Lysates were prepared in the presence of 10 mM IAA and subjected to the in-gel PTP assay. […] The result shown is representative of four independent experiments. Oxidation of this 70 kDa PTP was reversible, reaching a maximum at 5 minutes, followed by marked reduction, almost to basal levels, within 20 minutes of PDGF treatment (FIG. 4A).
Rat-1 cells, either untreated (−) or stimulated with 50 ng/ml PDGF (+), were harvested in lysis buffer containing 10 mM IAA.

[7] = tested on: PDGFR/SHP-2 complex; experiment: recruitment of SHP-2 into a complex with the PDGFR; type: cell-based; conditions: ligand stimulation in Rat-1 cells, preliminary studies
Procedure: as §3
Serum-starved Rat-1 cells were exposed to PDGF (50 ng/ml) for the indicated times (FIG. 5A). The PDGFR and associated proteins were immunoprecipitated with antibody Ab-X, and pTyr proteins visualized by immunoblotting with anti-pTyr Ab G104 (FIG. 5A, upper panel). […]

[8] = tested on: PDGFR; experiment: PDGFR immunoprecipitation (Ab-X) and anti-pTyr immunoblot; type: cell-based, Rat; conditions: 30 mM NAC 40 minutes before PDGF 50 ng/ml
Procedure: as §3
A possible role of oxidation/inactivation of the 70 k PTP in regulating PDGFR-mediated signaling was next investigated by testing the effects of the antioxidant NAC. Cells were incubated for 40 minutes in the presence or absence of 30 mM NAC prior to PDGF stimulation. Excess NAC was removed prior to addition of PDGF (50 ng/ml). […]

[9] = PDGF-treated Rat-1 cells, preliminary experiments
[10] = 30 mM NAC 40 minutes before PDGF 50 ng/ml

## CC(C)(C)OO [t-BHP, t-butyl hydroperoxide]
[1]; lysis with 10 mM IAA
  inactivation (oxidation) of PTPs in cells: not in response to t-BHP
[2]; 200 μM
  tyrosine phosphorylation of cellular proteins: less pronounced effects on tyrosine phosphorylation
[3]
  protection of SHP-2 from alkylation by IAA: did not protect the invariant Cys residue of SHP-2 from alkylation
[3]; purified SHP-2 (E76A)
  oxidation and inactivation of SHP-2 in vitro: unable to oxidize and inactivate SHP-2
[4]
  DCF fluorescence by fluorescence microscopy: led to rapid oxidation and the appearance of the fluorescent derivative, DCF
  shift of DCF fluorescence by flow cytometry, H2O2 versus t-BHP: no quantitative difference was observed
[5]
  activation of MAPKs (mitogenic signaling): unable to activate MAPKs

## PDGF: peptide growth factor
[2]; [9]
  tyrosine phosphorylation of cellular proteins: rapid increase in the tyrosine phosphorylation of cellular proteins
[4]; 20 μM CM-H2DCFDA, growth factor 50 ng/ml, 10 mins
  production of intracellular ROS: triggered production of intracellular ROS
[6]; 50 ng/ml PDGF-BB
  time of maximum oxidation of 70 kDa PTP: 5 min
  time to reduction of 70 kDa PTP almost to basal levels: ≤ 20 min
[6]; 50 ng/ml PDGF-BB, serum-starved Rat-1 cells
  oxidation of ~70 kDa PTP: rapid and transient oxidation; also recorded: transiently oxidized
[6]; peptide growth factors, lysis with 10 mM IAA
  oxidation and inhibition of SHP-2: oxidation and inhibition of SHP-2 was observed; also recorded: induced
[5]; [9]
  phosphorylation of MAPKs: enhanced phosphorylation of MAPKs
[5]; peptide growth factors, Rat-1 cells
  activation of MAPK: activated MAPK to a similar extent
[7]
  fraction of total SHP-2 recruited into a complex with the PDGFR: ~10%

## CCCCS(=N)(=O)CCC(N)C(=O)O [BSO, L-buthionine-SR-sulfoximine]
[1]; 2.5 mM BSO 16 h, 200 μM H2O2 for 2 minutes then removed
  effect on recovery of PTP activity following removal of H2O2: markedly attenuated the recovery of PTP activity
[1]; BSO-pretreated Rat-1 cells
  persistence of PTP oxidation after removal of H2O2: ≥ 30 min

## OO [H2O2, hydrogen peroxide]
[1]; 200 μM H2O2 for 2 minutes, no BSO
  time to essentially complete recovery (reduction) of PTPs after removal of H2O2: 10 to 20 min
[1]; lysis with 10 mM IAA
  inactivation (oxidation) of PTPs in cells: reproducible inactivation of PTPs was detected
[1]; 1 min exposure, serum-deprived Rat-1 cells
  H2O2 concentration sufficient to oxidize all PTPs detectable in the assay: 200 µM
[1]; H2O2 added to culture media, lysis with 10 mM IAA
  time to oxidation of active site Cys of various PTPs: ≤ 1 min
[2]; 200 μM
  tyrosine phosphorylation of cellular proteins: enhanced tyrosine phosphorylation
[2]; various concentrations of H2O2
  tyrosine phosphorylation of proteins of 120 kDa and 70 kDa: induced in a dose-dependent fashion
[3]; 2 mM H2O2
  irreversible oxidation of SHP-2: not irreversibly oxidized
[3]
  protection of SHP-2 from alkylation by IAA: protected SHP-2 from alkylation
[4]
  DCF fluorescence by fluorescence microscopy: led to rapid oxidation and the appearance of the fluorescent derivative, DCF
  shift of DCF fluorescence by flow cytometry, H2O2 versus t-BHP: no quantitative difference was observed
[5]
  activation of MAPKs (mitogenic signaling): enhanced tyrosine phosphorylation and mitogenic signaling
[5]; H2O2-treated Rat-1 cells
  phosphorylation of ERK MAP kinases: triggered the phosphorylation of ERK MAP kinases

## CC(=O)N[C@@H](CS)C(=O)O [NAC, N-acetyl cysteine]
[1]; 30 mM NAC preincubation 40 minutes, then 200 μM H2O2
  effect on H2O2-induced PTP oxidation and inactivation: blocked PTP oxidation and inactivation
[6]; [10]
  effect on PDGF-induced oxidation of the 70 k PTP: markedly attenuated; also recorded: impaired
[5]; [10]
  effect on PDGF-induced activation of MAPKs: completely eliminated
[8]
  effect on ligand-induced tyrosine phosphorylation of the PDGFR: greatly diminished
